Columns and labels:
Format in all cases: cell-based, Diaphorina citri
[1] = tested on: neuron 7C (rhinarial plate on flagellomere 7); test: single-sensillum electrophysiology, odor response of neuron 7C; conditions: for odor response (frequency of action potentials during stimulus minus baseline), 7C: Table 1, odor diluted to 1%, 50 μL in cartridge; for response to ultra-prolonged activators, 7C: Table 3, 10^−2 in paraffin oil, 50 μL, odor puff of 0.5 sec
[2] = tested on: neuron 4C (rhinarial plate on flagellomere 4); test: single-sensillum electrophysiology, odor response of neuron 4C; conditions: for odor response (frequency of action potentials during stimulus minus baseline), 4C: Table 1, odor diluted to 1%, 50 μL in cartridge; for response to ultra-prolonged activators, 4C: Table 3, 10^−2 in paraffin oil, 50 μL, odor puff of 0.5 sec; as to response to ultra-prolonged activators, 4C: key: 0, no response; +, >50 spikes/second; ++, >100 spikes/second; +++, >150 spikes/second
[3] = tested on: neuron 2A (rhinarial plate on flagellomere 2); test: single-sensillum electrophysiology, odor response of neuron 2A; conditions: for odor response (frequency of action potentials during stimulus minus baseline), 2A: Table 1, odor diluted to 1%, 50 μL in cartridge; for response to ultra-prolonged activators, 2A: Table 3, 10^−2 in paraffin oil, 50 μL, odor puff of 0.5 sec; as to all read-outs here: key: 0, no response; +, >50 spikes/second; ++, >100 spikes/second; +++, >150 spikes/second
[4] = tested on: neuron 7B (rhinarial plate on flagellomere 7); conditions: for odor response (frequency of action potentials during stimulus minus baseline), 7B: Table 1, odor diluted to 1%, 50 μL in cartridge; for response to ultra-prolonged activators, 7B: Table 3, 10^−2 in paraffin oil, 50 μL, odor puff of 0.5 sec; as to response to ultra-prolonged activators, 7B: key: 0, no response; +, >50 spikes/second; ++, >100 spikes/second; +++, >150 spikes/second
[5] = tested on: neuron 2C (rhinarial plate on flagellomere 2); test: single-sensillum electrophysiology, odor response of neuron 2C; conditions: for odor response (frequency of action potentials during stimulus minus baseline), 2C: Table 1, odor diluted to 1%, 50 μL in cartridge; for response to ultra-prolonged activators, 2C: Table 3, 10^−2 in paraffin oil, 50 μL, odor puff of 0.5 sec
[6] = tested on: neuron 4A (rhinarial plate on flagellomere 4); test: single-sensillum electrophysiology, odor response of neuron 4A; conditions: for odor response (frequency of action potentials during stimulus minus baseline), 4A: Table 1, odor diluted to 1%, 50 μL in cartridge; for response to ultra-prolonged activators, 4A: Table 3, 10^−2 in paraffin oil, 50 μL, odor puff of 0.5 sec
[7] = tested on: neuron 6A (rhinarial plate on flagellomere 6); test: single-sensillum electrophysiology, odor response of neuron 6A; conditions: for odor response (frequency of action potentials during stimulus minus baseline), 6A: Table 1, odor diluted to 1%, 50 μL in cartridge; for response to ultra-prolonged activators, 6A: Table 3, 10^−2 in paraffin oil, 50 μL, odor puff of 0.5 sec
[8] = tested on: neuron 4B (rhinarial plate on flagellomere 4); conditions: for odor response (frequency of action potentials during stimulus minus baseline), 4B: Table 1, odor diluted to 1%, 50 μL in cartridge; for response to ultra-prolonged activators, 4B: Table 3, 10^−2 in paraffin oil, 50 μL, odor puff of 0.5 sec
[9] = tested on: neuron 6B (rhinarial plate on flagellomere 6); test: single-sensillum electrophysiology, odor response of neuron 6B; conditions: for odor response (frequency of action potentials during stimulus minus baseline), 6B: Table 1, odor diluted to 1%, 50 μL in cartridge; for response to ultra-prolonged activators, 6B: Table 3, 10^−2 in paraffin oil, 50 μL, odor puff of 0.5 sec
[10] = tested on: neuron 6C (rhinarial plate on flagellomere 6); test: single-sensillum electrophysiology, odor response of neuron 6C; conditions: for odor response (frequency of action potentials during stimulus minus baseline), 6C: Table 1, odor diluted to 1%, 50 μL in cartridge; for response to ultra-prolonged activators, 6C: Table 3, 10^−2 in paraffin oil, 50 μL, odor puff of 0.5 sec
[11] = tested on: neuron 2B (rhinarial plate on flagellomere 2); test: single-sensillum electrophysiology, odor response of neuron 2B; conditions: for odor response (frequency of action potentials during stimulus minus baseline), 2B: Table 1, odor diluted to 1%, 50 μL in cartridge; for response to ultra-prolonged activators, 2B: Table 3, 10^−2 in paraffin oil, 50 μL, odor puff of 0.5 sec
[12] = tested on: neuron 7A (rhinarial plate on flagellomere 7); test: single-sensillum electrophysiology, odor response of neuron 7A; conditions: for odor response (frequency of action potentials during stimulus minus baseline), 7A: Table 1, odor diluted to 1%, 50 μL in cartridge; for response to ultra-prolonged activators, 7A: Table 3, 10^−2 in paraffin oil, 50 μL, odor puff of 0.5 sec; as to all read-outs here: key: 0, no response; +, >50 spikes/second; ++, >100 spikes/second; +++, >150 spikes/second

SMILES | odor response (frequency of action potentials during stimulus minus baseline), 7C [1] | odor response (frequency of action potentials during stimulus minus baseline), 4C [2] | odor response (frequency of action potentials during stimulus minus baseline), 2A [3] | odor response (frequency of action potentials during stimulus minus baseline), 7B [4] | odor response (frequency of action potentials during stimulus minus baseline), 2C [5] | odor response (frequency of action potentials during stimulus minus baseline), 4A [6] | odor response (frequency of action potentials during stimulus minus baseline), 6A [7] | odor response (frequency of action potentials during stimulus minus baseline), 4B [8] | odor response (frequency of action potentials during stimulus minus baseline), 6B [9] | odor response (frequency of action potentials during stimulus minus baseline), 6C [10] | odor response (frequency of action potentials during stimulus minus baseline), 2B [11] | odor response (frequency of action potentials during stimulus minus baseline), 7A [12] | further results
CCCCCCO [1-hexanol] | 0 | 0 | 0 | 0 | 0 | 0 | 0 | + (+, >50 spikes/second) | + (+, >50 spikes/second) | 0 | 0 | 0 | response to ultra-prolonged activators, 7C [1]: 0; response to ultra-prolonged activators, 4C [2]: 0; response to ultra-prolonged activators, 2A [3]: 0; response to ultra-prolonged activators, 7B [4]: 0; response to ultra-prolonged activators, 2C [5]: 0; response to ultra-prolonged activators, 4A [6]: 0; response to ultra-prolonged activators, 6A [7]: 0; response to ultra-prolonged activators, 4B [8]: + (+, >50 spikes/second); response to ultra-prolonged activators, 6B [9]: + (+, >50 spikes/second); response to ultra-prolonged activators, 6C [10]: 0; response to ultra-prolonged activators, 2B [11]: 0; response to ultra-prolonged activators, 7A [12]: 0
CCC/C=C/C=O [E2-hexenal] | 0 | 0 | 0 | 0 | ++ (++, >100 spikes/second) | 0 | 0 | + (+, >50 spikes/second) | + (+, >50 spikes/second) | 0 | 0 | 0 | –
C=C(C)[C@H]1CC=C(C)C(=O)C1 [(+)-carvone] | 0 | 0 | 0 | 0 | 0 | 0 | 0 | ++ (++, >100 spikes/second) | ++ (++, >100 spikes/second) | 0 | 0 | 0 | response to ultra-prolonged activators, 7C [1]: 0; response to ultra-prolonged activators, 4C [2]: 0; response to ultra-prolonged activators, 2A [3]: 0; response to ultra-prolonged activators, 7B [4]: 0; response to ultra-prolonged activators, 2C [5]: 0; response to ultra-prolonged activators, 4A [6]: 0; response to ultra-prolonged activators, 6A [7]: 0; response to ultra-prolonged activators, 4B [8]: ++ (++, >100 spikes/second); response to ultra-prolonged activators, 6B [9]: ++ (++, >100 spikes/second); response to ultra-prolonged activators, 6C [10]: 0; response to ultra-prolonged activators, 2B [11]: 0; response to ultra-prolonged activators, 7A [12]: 0
CCCCCC(C)=O [2-heptanone] | 0 | 0 | 0 | 0 | + (+, >50 spikes/second) | 0 | 0 | + (+, >50 spikes/second) | + (+, >50 spikes/second) | 0 | 0 | 0 | –
CC/C=C\CCO [Z3-hexenol] | 0 | 0 | 0 | 0 | 0 | 0 | 0 | + (+, >50 spikes/second) | + (+, >50 spikes/second) | 0 | 0 | 0 | –
CC(=O)c1ccccc1 [acetophenone] | + (+, >50 spikes/second) | 0 | 0 | 0 | 0 | 0 | 0 | ++ (++, >100 spikes/second) | ++ (++, >100 spikes/second) | 0 | 0 | 0 | –
CCCCCOC(C)=O [pentyl acetate] | 0 | 0 | 0 | 0 | ++ (++, >100 spikes/second) | 0 | 0 | + (+, >50 spikes/second) | ++ (++, >100 spikes/second) | 0 | 0 | 0 | –
C=CC(O)CCCCC (stereo not drawn) [1-octen-3-ol] | 0 | 0 | 0 | 0 | 0 | 0 | 0 | 0 | + (+, >50 spikes/second) | 0 | 0 | 0 | –
CC(=O)OCC(C)C [isobutyl acetate] | 0 | 0 | 0 | 0 | 0 | 0 | 0 | ++ (++, >100 spikes/second) | ++ (++, >100 spikes/second) | 0 | 0 | 0 | –
C=CCSSCC=C [allyl disulfide] | 0 | 0 | 0 | 0 | 0 | 0 | 0 | ++ (++, >100 spikes/second) | + (+, >50 spikes/second) | 0 | 0 | 0 | –

— US20180055032A1, “ODORS FOR PSYLLID TRAPPING, REPELLING AND CONTROL” (The Regents of the University of California, priority 2011, published 2018)
